Assay results: US9359395B2, “Prodrugs of steroidal CYP17 inhibitors/antiandrogens” (Tokai Pharmaceuticals, Inc., priority 2009, dated 2016)

What was measured:
[1] = Oral bioavailability in rats; conditions: rat, in vivo, initial studies
[2] = mice, cited from earlier work; for detectability in plasma at 8 hours / peak plasma levels: s.c. 50 mg/kg
AR = conditions: cited from earlier work
[3] = test system: androgen-dependent LAPC4 human prostate tumor xenograft; conditions: cited from earlier work; for inhibiting the growth of LAPC4 xenograft: in vivo

Structure (SMILES)	bioavailability [1] [%]	detectability in plasma at 8 hours [2]	peak plasma levels [2] [ng/mL]	conversion into metabolite ([2]; metabolite tentatively identified as 17-(1H-benzimidazol-1-yl)androsta-3-one)	AR antagonist activity (AR)	reduction in the mean final tumor volume compared with controls ([3]; 50 mg/kg, twice daily, P=0.00065) [%]	efficacy compared with castration ([3]; 50 mg/kg, twice daily)	inhibiting the growth of LAPC4 xenograft [3]
C[C@]12CC[C@H](O)CC1=CCC1C2CC[C@]2(C)C(n3cnc4ccccc43)=CCC12 (stereo partly drawn) [Compound 5, 3-β-hydroxy-17-(1H-benzimidazole-1-yl)androsta-5,16-diene]	~10	neither was detectable	16.82	rapidly converted into a metabolite	potent pure AR antagonists	93.8	significantly more effective than castration	very effective
C[C@]12CCC(=O)C=C1CCC1C2CC[C@]2(C)C(n3cnc4ccccc43)=CCC12 (stereo partly drawn) [Compound 6, 17-(1H-benzimidazole-1-yl)androsta-4,16-diene-3-one]	–	neither was detectable	5.15	–	potent pure AR antagonists	–	–	ineffective
